Patent US12077503B2, “Substituted cyclic amides and their use as herbicides” (FMC CORPORATION, priority 2015, dated 2024)

Assays:
Type in all cases: in vivo
[1] = system: Galium (catchweed bedstraw, Galium aparine); test: Test A postemergence
Description: (§1) Seeds of plant species selected from barnyardgrass (Echinochloa crus-galli), Kochia (Kochia scoparia), ragweed (common ragweed, Ambrosia elatior), ryegrass, Italian (Italian ryegrass, Lolium multiflorum), crabgrass, large (Digitaria sanguinalis), giant foxtail (Setaria faberii), green foxtail (Setaria viridis), morningglory (Ipomoea spp.), pigweed (Amaranthus retroflexus), velvetleaf (Abutilon theophrasti), wheat (Triticum aestivum), and corn (Zea mays) were planted into a blend of loam soil and sand and treated preemergence with a directed soil spray using test chemicals formulated in anon-phytotoxic solvent mixture which included a surfactant.
(§2) At the same time, plants selected from these crop and weed species and also blackgrass (Alopecurus myosuroides), and Galium (catchweed bedstraw, Galium aparine) were planted in pots containing the same blend of loam soil and sand and treated with postemergence applications of test chemicals formulated in the same manner. Plants ranged in height from 2 to 10 cm and were in the one- to two-leaf stage for the postemergence treatment. Treated plants and untreated controls were maintained in a greenhouse for approximately 10 d, after which time all treated plants were compared to untreated controls and visually evaluated for injury. Plant response ratings, summarized in Table A, are based on a 0 to 100 scale where 0 is no effect and 100 is complete control. A dash (-) response means no test result.

[2] = system: pigweed (Amaranthus retroflexus); test: Test A postemergence
Description: as §1, §2

[3] = system: ragweed (common ragweed, Ambrosia elatior); test: Test A postemergence
Description: as §1, §2

[4] = system: barnyardgrass (Echinochloa crus-galli); test: Test A postemergence
Description: as §1, §2

Kochia (Kochia scoparia) [5] = test: Test A postemergence
Description: as §1, §2

[6] = system: giant foxtail (Setaria faberii); test: Test A postemergence
Description: as §1, §2

[7] = system: ryegrass, Italian (Italian ryegrass, Lolium multiflorum); test: Test A postemergence
Description: as §1, §2

[8] = system: blackgrass (Alopecurus myosuroides); test: Test A postemergence
Description: as §1, §2

[9] = system: wheat (Triticum aestivum); test: Test A postemergence
Description: as §1, §2

corn (Zea mays) = test: Test A postemergence
Description: as §1, §2

[10] = system: pigweed (Amaranthus retroflexus); test: Test A preemergence; conditions: Preemergence; for Plant response rating, Pigweed: 125 g ai/ha, visual injury after approximately 10 d, 0 to 100 scale where 0 is no effect and 100 is complete control; for Pigweed plant response rating (0 to 100 scale, 0 is no effect, 100 is complete control): 500 g ai/ha, visual injury approx. 10 d
Description: as §1, §2

[11] = system: ragweed (common ragweed, Ambrosia elatior); test: Test A preemergence; conditions: Preemergence; for Plant response rating, Ragweed: 125 g ai/ha, visual injury after approximately 10 d, 0 to 100 scale where 0 is no effect and 100 is complete control; for Ragweed plant response rating (0 to 100 scale, 0 is no effect, 100 is complete control): 500 g ai/ha, visual injury approx. 10 d
Description: as §1, §2

[12] = system: barnyardgrass (Echinochloa crus-galli); test: Test A preemergence; conditions: Preemergence; for Plant response rating, Barnyardgrass: 125 g ai/ha, visual injury after approximately 10 d, 0 to 100 scale where 0 is no effect and 100 is complete control; for Barnyardgrass plant response rating (0 to 100 scale, 0 is no effect, 100 is complete control): 500 g ai/ha, visual injury approx. 10 d
Description: as §1, §2

Kochia (Kochia scoparia) [13] = test: Test A preemergence; conditions: Preemergence; for Plant response rating, Kochia: 125 g ai/ha, visual injury after approximately 10 d, 0 to 100 scale where 0 is no effect and 100 is complete control; for Kochia plant response rating (0 to 100 scale, 0 is no effect, 100 is complete control): 500 g ai/ha, visual injury approx. 10 d
Description: as §1, §2

[14] = system: giant foxtail (Setaria faberii); test: Test A preemergence; conditions: Preemergence; for Plant response rating, Foxtail, Giant: 125 g ai/ha, visual injury after approximately 10 d, 0 to 100 scale where 0 is no effect and 100 is complete control; for Foxtail, Giant plant response rating (0 to 100 scale, 0 is no effect, 100 is complete control): 500 g ai/ha, visual injury approx. 10 d
Description: as §1, §2

[15] = system: ryegrass, Italian (Italian ryegrass, Lolium multiflorum); test: Test A preemergence; conditions: Preemergence; for Plant response rating, Ryegrass, Italian: 125 g ai/ha, visual injury after approximately 10 d, 0 to 100 scale where 0 is no effect and 100 is complete control; for Ryegrass, Italian plant response rating (0 to 100 scale, 0 is no effect, 100 is complete control): 500 g ai/ha, visual injury approx. 10 d
Description: as §1, §2

[16] = 125 g ai/ha, postemergence, visual rating after approx. 10 d, 0 to 100 scale (0 no effect, 100 complete control)
[17] = Postemergence, 500 g ai/ha, 0 to 100 scale where 0 is no effect and 100 is complete control
[18] = 125 g ai/ha, postemergence, visual injury rating on 0 to 100 scale (0 no effect, 100 complete control), approx. 10 d

Row | SMILES | Plant response rating, Galium [1, 16] | Plant response rating, Galium [1, 17] | Plant response rating, Pigweed [2, 16] | Plant response rating, Pigweed [2, 17] | Plant response rating, Ragweed [3, 16] | Plant response rating, Ragweed [3, 17] | Plant response rating, Barnyardgrass [4, 17] | Plant response rating, Kochia (Kochia (Kochia scoparia) [5]; [16]) | Plant response rating, Kochia (Kochia (Kochia scoparia) [5]; [17]) | Plant response rating, Foxtail, Giant [6, 16] | Plant response rating, Foxtail, Giant [6, 17] | Plant response rating, Ryegrass, Italian [7, 16] | Plant response rating, Ryegrass, Italian [7, 17] | Plant response rating, Blackgrass [8, 17] | Plant response rating, Wheat [9, 16] | Plant response rating, Wheat [9, 17] | Plant response rating, Corn (corn (Zea mays); [16]) | Plant response rating, Corn (corn (Zea mays); [17]) | Plant response rating, Pigweed [10] | Pigweed plant response rating (0 to 100 scale, 0 is no effect, 100 is complete control) [10] | other results
1 | O=C(Nc1cccc(F)c1F)C1C(=O)N(C2C=CCCC2)CC1c1cccc(C(F)(F)F)c1 (stereo not drawn) [Compound 525] | 0 | 0 | 0 | 0 | 0 | 0 | 40 | 0 | 0 | 20 | 60 | 0 | 0 | 30 | 0 | 0 | 0 | 0 | 0 | 0 | Barnyardgrass plant response rating [4, 18]: 40; Blackgrass plant response rating [8, 18]: 0; Plant response rating, Ragweed [11]: 0; Ragweed plant response rating (0 to 100 scale, 0 is no effect, 100 is complete control) [11]: 0; Plant response rating, Barnyardgrass [12]: 30; Barnyardgrass plant response rating (0 to 100 scale, 0 is no effect, 100 is complete control) [12]: 50; Plant response rating, Kochia (Kochia (Kochia scoparia) [13]): 0; Kochia plant response rating (0 to 100 scale, 0 is no effect, 100 is complete control) (Kochia (Kochia scoparia) [13]): 0; Plant response rating, Foxtail, Giant [14]: 30; Foxtail, Giant plant response rating (0 to 100 scale, 0 is no effect, 100 is complete control) [14]: 70; Plant response rating, Ryegrass, Italian [15]: 0; Ryegrass, Italian plant response rating (0 to 100 scale, 0 is no effect, 100 is complete control) [15]: 0
2 | Cc1ccc(C2CN(C)C(=O)C2C(=O)Nc2ccccc2S(C)(=O)=O)c(F)c1 (stereo not drawn) [Compound 558] | 30 | 60 | 0 | 0 | 0 | 40 | 100 | 20 | 70 | 70 | 90 | 0 | 40 | 60 | 0 | 40 | 0 | 20 | 30 | 70 | Plant response rating, Barnyardgrass [4, 16]: 80; Plant response rating, Blackgrass [8, 16]: 20; Plant response rating, Ragweed [11]: 50; Ragweed plant response rating (0 to 100 scale, 0 is no effect, 100 is complete control) [11]: 70; Plant response rating, Barnyardgrass [12]: 90; Barnyardgrass plant response rating (0 to 100 scale, 0 is no effect, 100 is complete control) [12]: 100; Plant response rating, Kochia (Kochia (Kochia scoparia) [13]): 70; Kochia plant response rating (0 to 100 scale, 0 is no effect, 100 is complete control) (Kochia (Kochia scoparia) [13]): 80; Plant response rating, Foxtail, Giant [14]: 90; Foxtail, Giant plant response rating (0 to 100 scale, 0 is no effect, 100 is complete control) [14]: 100; Plant response rating, Ryegrass, Italian [15]: 0; Ryegrass, Italian plant response rating (0 to 100 scale, 0 is no effect, 100 is complete control) [15]: 60
3 | Cc1ccc(C2CN(C)C(=O)C2C(=O)Nc2ccc(F)cc2F)c(F)c1 (stereo not drawn) [Compound 559] | 50 | 60 | 0 | 0 | 0 | 0 | 100 | 30 | 70 | 90 | 90 | 0 | 30 | 60 | 0 | 50 | 0 | 30 | 20 | 50 | Plant response rating, Barnyardgrass [4, 16]: 90; Plant response rating, Blackgrass [8, 16]: 20; Plant response rating, Ragweed [11]: 0; Ragweed plant response rating (0 to 100 scale, 0 is no effect, 100 is complete control) [11]: 20; Plant response rating, Barnyardgrass [12]: 90; Barnyardgrass plant response rating (0 to 100 scale, 0 is no effect, 100 is complete control) [12]: 100; Plant response rating, Kochia (Kochia (Kochia scoparia) [13]): 60; Kochia plant response rating (0 to 100 scale, 0 is no effect, 100 is complete control) (Kochia (Kochia scoparia) [13]): 80; Plant response rating, Foxtail, Giant [14]: 90; Foxtail, Giant plant response rating (0 to 100 scale, 0 is no effect, 100 is complete control) [14]: 100; Plant response rating, Ryegrass, Italian [15]: 0; Ryegrass, Italian plant response rating (0 to 100 scale, 0 is no effect, 100 is complete control) [15]: 50
